Assay [1] deals with T1, 5-HT1A receptor (Rattus norvegicus, UniProt P19327).
T1 construct: rat hippocampal membrane homogenate; from tissue; host or cells: rat hippocampus membrane homogenate
T1 sequence (P19327 1-422): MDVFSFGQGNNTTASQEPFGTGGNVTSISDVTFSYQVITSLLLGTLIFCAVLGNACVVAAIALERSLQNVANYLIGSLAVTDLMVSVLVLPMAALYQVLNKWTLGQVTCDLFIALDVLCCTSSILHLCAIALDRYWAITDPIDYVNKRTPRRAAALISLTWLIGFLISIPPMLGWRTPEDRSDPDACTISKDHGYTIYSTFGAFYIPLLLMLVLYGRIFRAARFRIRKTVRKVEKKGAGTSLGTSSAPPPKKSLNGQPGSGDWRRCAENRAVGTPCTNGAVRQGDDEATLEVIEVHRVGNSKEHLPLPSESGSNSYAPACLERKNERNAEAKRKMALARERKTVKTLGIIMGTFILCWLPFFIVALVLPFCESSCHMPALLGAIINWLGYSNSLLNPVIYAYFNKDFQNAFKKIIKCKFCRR
As to the kind of experiment: 5-HT1A receptor binding activity in rat hippocampal membrane homogenate. The protocol:
The compounds of the invention were tested for 5-HT1A receptor binding activity in rat hippocampal membrane homogenate by the method of B S Alexander and M D Wood, J Pharm Pharmacol, 1988, 40, 888-891.

For assay [2], the target named is T2, 5-HT1A receptor (Cavia porcellus, UniProt A0A286Y074).
T2 construct: guinea-pig ileum in vitro; from tissue; host or cells: guinea-pig ileum
T2 sequence (A0A286Y074 1-421): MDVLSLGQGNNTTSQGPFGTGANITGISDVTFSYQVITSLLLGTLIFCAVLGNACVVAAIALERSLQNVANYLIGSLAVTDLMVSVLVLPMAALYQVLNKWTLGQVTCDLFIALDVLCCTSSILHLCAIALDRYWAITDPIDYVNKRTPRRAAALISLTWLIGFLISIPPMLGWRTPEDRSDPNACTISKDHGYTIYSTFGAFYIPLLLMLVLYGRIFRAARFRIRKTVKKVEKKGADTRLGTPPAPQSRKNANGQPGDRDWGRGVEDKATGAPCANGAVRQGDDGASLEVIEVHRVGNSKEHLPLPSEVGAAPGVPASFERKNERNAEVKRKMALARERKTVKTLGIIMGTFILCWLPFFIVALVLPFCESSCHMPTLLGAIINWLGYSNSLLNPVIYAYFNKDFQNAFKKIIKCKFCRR
As to the kind of experiment: 5-HT1A receptor antagonism: antagonism of 5-carboxamidotryptamine in the guinea-pig ileum in vitro. The protocol: The compounds are tested for 5-HT1A receptor antagonism activity in a test involving the antagonism of 5-carboxamidotryptamine in the guinea-pig ileum in vitro (based upon the procedure of Fozard et al, Br J Pharmac, 1985, 86, 601P).

Turning to `O=C(C1CCCCC1)N(CCN1CCN(c2cccc3c2OCCO3)CC1)c1ccccn1` [Example 17, N-(2-(1-(4-(2,3-Dihydro-1,4-benzodioxin-5-yl)piperazinyl))ethyl)-N-(2-pyridinyl)cyclohexanecarboxamide], at 5-HT1A receptor [1], the IC50 – broadly, the concentration that inhibits the measured activity by half – was determined as 3 nM. The “pA2, 5-HT1A receptor antagonism” value on 5-HT1A receptor [2] worked out at 9.8.
Consider `COc1ccccc1N1CCN(CCN(C(=O)NC2CCCCC2)c2ccccn2)CC1` [Example 4, N-Cyclohexyl-N-(2-(1-(4-(2-methoxyphenyl)piperazinyl))ethyl)-N-(2-pyridinyl)urea], for which the half-maximal inhibitory concentration (IC50) on 5-HT1A receptor [1] was 5.8 nM. Besides, at 5-HT1A receptor [2] (read-out: pA2, 5-HT1A receptor antagonism (converted)), the Kb was 15.8 nM.

Source of the values: patent US6127357A, “N-((phenyl, benzodioxinyl or N-heteroarylpiperazinyl)alkyl)-N-(N-heteroaryl)substituted carboxamides” (John Wyeth & Brother, Ltd., priority 1991, dated 2000).
